Values quoted from earlier work as cited in patent US6514531B1, “Controlled-release dosage forms comprising zolpidem or a salt thereof” (Sanofi-Synthelabo, priority 1998, dated 2003).

SMILES: Cc1ccc(-c2nc3ccc(C)cn3c2CC(=O)N(C)C)cc1 [zolpidem]
- kinetics in the therapeutical dose range (between 5 and 10 mg in conventional forms): linear kinetics
- duration of action (hypnotic action, oral, conventional forms): up to 6 hours
